The results in this text go back to patent publication US20260049089A1, “KRAS INHIBITOR COMPOUND” (SHANGHAI APEIRON THERAPEUTICS COMPANY LIMITED, priority 2022, published 2026).

Where “and” joins values, the source holds several entries; their conditions need not be identical. Identical values can stand only once. Like-named read-outs stand apart in the source and are kept apart here. Some results are limits rather than exact numbers.

Type in all cases: cell-based
Assay [1] deals with AGS cells. The experiment in a line: 3D cell proliferation assay (CellTiter-Glo 3D), AGS. The settings on record: 5 days, read-out: 3D Proliferation Inhibition AGS_IC50. The protocol:
(§1) Using a nanoliter liquid handling system (LABCYTE, P-0200), the diluted test compounds were added to a 384-well low-adsorption cell culture plate. Cells were seeded into the wells, and the plate was placed in an incubator at 37° C. with 5% CO2. After co-incubating the compounds and cells for 5 days, CellTiter-Glo® 3D reagent was added. Luminescence values were measured using an EnVision Multilabel Plate Reader (luminescence is proportional to the ATP content in the system, and ATP content directly reflects the number of viable cells). Finally, the IC50 values (half-maximal inhibitory concentrations) of the compounds were determined using non-linear fitting equations in XLFit software with the following parameters: […]
(§2) X: Logarithm of compound concentration • Y: Inhibition rate (%)
(§3) [formula] • Negative control: DMSO • Positive control: Medium only
(In ATP-based viability assays light output follows the ATP content of the culture.)

Assay [2] relates to pERK in AsPC-1 cells. In words: ERK phosphorylation cell assay, AsPC-1. The settings on record: read-out: pERK AsPC-1_IC50. The protocol:
[Worded in the source for another cell line; this cell line is reported under the same test.] (§4) • Day 1: AGS cells were seeded into a 384-well cell culture plate and incubated overnight at 37° C. with 5% CO2 in a cell culture incubator. • Day 2: Compounds were added to the plate using an Echo550 liquid handler, followed by incubation at 37° C. with 5% CO2 in a cell culture incubator for 3 hours. Subsequently, the cells were fixed with paraformaldehyde, permeabilized with methanol, and blocked with blocking buffer. A primary antibody mixture (rabbit anti-pERK, mouse anti-GAPDH) was added, and the plate was incubated overnight at 4° C. • Day 3: The primary antibodies were removed, and a secondary antibody mixture (goat anti-rabbit 800CW, goat anti-mouse 680RD) was added. The plate was incubated at room temperature in the dark. After three washes with PBST, the plate was inverted and centrifuged for 1 minute. Fluorescence signal values were read using an Odyssey CLx imaging system.
(§5) [formula] • Negative control: DMSO • Positive control: 10 μM Reference • Fitted using XLFit 5.0 with the following parameters:
(§6) [formula] • X: Log of compound concentration • Y: Mean relative expression levels of p-ERK across replicates

In assay [3] the test system is AsPC-1 cells. The experiment in a line: 3D cell proliferation assay (CellTiter-Glo 3D), AsPC-1. The settings on record: 5 days, read-out: 3D Proliferation Inhibition AsPC-1_IC50. The procedure: as §1, §2, §3
Assay [4] deals with pERK in AGS cells. In words: ERK phosphorylation cell assay, AGS. The settings on record: 3 hours compound incubation, read-out: pERK AGS_IC50. The protocol:
as §4, §5, §6

Where [5] appears, read: Homo sapiens, ASPC1, AsPC-1 cells.

“3,15-difluoro-13-((2R,7aS)-2-fluorotetrahydro-1H-pyrazin-7a(5H)-yl)methoxy)-11-((R)-3-hydroxy-3-methylpiperidin-1-yl)-4,5,8,9-tetrahydro-7H-naphtho[1′,8′:7,8,9][1]oxa[4]azacycloundeca[5,6-g]quinazoline-17-ol [Example 43A]”: the IC50 in assay [1] was 22 nM and 24 nM; in assay [2] (AsPC-1 cells), 15 nM; in assay [3], 60 nM and 55 nM; in assay [4] it was 4.6 nM.
Regarding `C[C@@]1(O)CCCN(c2nc(OCC34CCCN3CCC4)nc3c(F)c4c(cc23)NCCCCCc2c(F)ccc3cc(O)cc-4c23)C1` (single isomer, unassigned) [Example 21A], the IC50 was 226 nM in assay [1] (Homo sapiens, AGS, 120 h); 938 nM and 721 nM in assay [2] (AsPC-1 cells); 2630 nM in assay [3] (Homo sapiens, ASPC1, 120 h); 93 nM and 99 nM in assay [4].
Consider `C=C1CN2CCCC2(COc2nc(N3CCC[C@@](C)(O)C3)c3cc4c(c(F)c3n2)-c2cc(O)cc3ccc(F)c(c23)CCCCCN4C)C1` (single isomer, unassigned) [Example 22A], for which the IC50 in assay [1] is 90 nM; in assay [2] (AsPC-1 cells), 85 nM; in assay [3], 166 nM; in assay [4] it was 26 nM.
For `C=C1CN2CCCC2(COc2nc(N3CCC[C@@](C)(O)C3)c3cc4c(c(F)c3n2)-c2cc(O)cc3ccc(F)c(c23)CCCCCN4C)C1` (single isomer, unassigned) [Example 22B], the IC50 in assay [1] is 553 nM; in assay [2] (AsPC-1 cells), 898 nM; in assay [3], 1790 nM; in assay [4] it was 430 nM.
`C[C@@]1(O)CCCN(c2nc(OCC34CCCN3C[C@]3(C4)CC3(F)F)nc3c(F)c4c(cc23)NCCCCCc2c(F)ccc3cc(O)cc-4c23)C1` (single isomer, unassigned) [Example 24A]: the IC50 is 508 nM in assay [1] (Homo sapiens, AGS, 120 h); 352 nM in assay [2] (AsPC-1 cells); 847 nM in assay [3] (Homo sapiens, ASPC1, 120 h); 91 nM in assay [4].
On to `CN1CCC[C@H]1COc1nc(N2CCC[C@@](C)(O)C2)c2cc3c(c(F)c2n1)-c1cc(O)cc2ccc(F)c(c12)CCCCCN3` (single isomer, unassigned) [Example 28A], for which the IC50 stood at 430 nM in assay [1], 776 nM in assay [2] (AsPC-1 cells), 1760 nM in assay [3] and 194 nM in assay [4].
For `CN1CCC[C@H]1COc1nc(N2CCC[C@@](C)(O)C2)c2cc3c(c(F)c2n1)-c1cc(O)cc2ccc(F)c(c12)CCCCCN3` (single isomer, unassigned) [Example 28B] the same measures were 3360 nM, over 10000 nM, 3550 nM and over 10000 nM.
Consider `C[C@@]1(O)CCCN(c2nc(OCC3(N4CCOCC4)CC3)nc3c(F)c4c(cc23)NCCCCCc2c(F)ccc3cc(O)cc-4c23)C1` (single isomer, unassigned) [Example 33A], for which the IC50 in assay [1] (Homo sapiens, AGS, 120 h) was 2310 nM; in assay [2] (setting [5]), over 10000 nM; in assay [3], 1490 nM; in assay [4] (Homo sapiens, AGS, 3 h), over 10000 nM.
As for `C[C@@]1(O)CCCN(c2nc(OCC3(N4CCOCC4)CC3)nc3c(F)c4c(cc23)NCCCCCc2c(F)ccc3cc(O)cc-4c23)C1` (single isomer, unassigned) [Example 33B], the IC50 in assay [1] is 3080 nM; in assay [2] (AsPC-1 cells), over 10000 nM; in assay [3], 4670 nM; in assay [4] it was over 10000 nM.
In the case of `C=C1CN2CCC[C@@]2(COc2nc(N3CCC[C@@](C)(O)C3)c3cc4c(c(F)c3n2)-c2cc(O)cc3ccc(F)c(c23)CCOCCN4)C1` (single isomer, unassigned) [Example 42A], the IC50 in assay [1] stood at 125 nM; in assay [2] (AsPC-1 cells), 134 nM; in assay [3], 456 nM; in assay [4] it was 26 nM.
For `C=C1CN2CCC[C@@]2(COc2nc(N3CCC[C@@](C)(O)C3)c3cc4c(c(F)c3n2)-c2cc(O)cc3ccc(F)c(c23)CCOCCN4)C1` (single isomer, unassigned) [Example 42B] the same measures were 61 nM, 74 nM, 341 nM and 12 nM.
Regarding `C=C1CN2CCC[C@@]2(COc2nc(N3CCC[C@@](C)(O)C3)c3cc4c(c(F)c3n2)-c2cc(O)cc3ccc(F)c(c23)CCOCCN4)C1` (single isomer, unassigned) [Example 42D], the IC50 came out at 5.9 nM in assay [1], 12 nM in assay [2] (AsPC-1 cells), 39 nM in assay [3] and 2.2 nM in assay [4].
Consider `C[C@@]1(O)CCCN(c2nc(OC[C@@]34CCCN3C[C@H](F)C4)nc3c(F)c4c(cc23)NCCOCCc2c(F)ccc3cccc-4c23)C1` (single isomer, unassigned) [Example 52B], for which the IC50 was over 10000 nM in assay [1] (Homo sapiens, AGS, 120 h); over 10000 nM in assay [2] (AsPC-1 cells); over 10000 nM in assay [3] (Homo sapiens, ASPC1, 120 h); over 10000 nM in assay [4].
For `CN1CCCCc2c(F)ccc3cc(O)cc(c23)-c2c1cc1c(N3CC4CCC(C3)N4)nc(OC[C@@]34CCCN3C[C@H](F)C4)nc1c2F` [Example 3, 10-((1R,5S)-3,8-Diazabicyclo[3.2.1]octan-3-yl)-3,14-difluoro-12-(((2R,7aS)-2-fluorotetrahydro-1H-pyrazin-7a(5H)-yl)methoxy)-8-methyl-5,6,7,8-tetrahydro-4H-naphtho[1′,8′:4,5,6]acridin[2,3-g]quinazolin-16-ol], the IC50 was found to be 329 nM in assay [1] (Homo sapiens, AGS, 120 h); 104 nM in assay [2] (setting [5]); 393 nM in assay [3] (Homo sapiens, ASPC1, 120 h); 47 nM in assay [4] (Homo sapiens, AGS, 3 h).
For `Oc1cc2c3c(c(F)ccc3c1)CCCCCNc1cc3c(N4CC5CCC(C4)N5)nc(OC[C@@]45CCCN4C[C@H](F)C5)nc3c(F)c1-2` [Example 5, 11-((1R,5S)-3,8-Diazabicyclo[3.2.1]octane-3-yl)-3,15-difluoro-13-(((2R,7aS)-2-fluorotetrahydro-1H-pyrrolin-7a(5H)-yl)methoxy)-4,5,6,7,8,9-hexahydro-naphtho[1′,8′:4,5,6][1]azacycloundecino[2,3-g]quinazolin-17-ol] the same measures were 128 nM, 41 nM, 196 nM and 12 nM.
For `Oc1cc2c3c(c(F)ccc3c1)CCCCCCNc1cc3c(N4CC5CCC(C4)N5)nc(OC[C@@]45CCCN4C[C@H](F)C5)nc3c(F)c1-2` [Example 8] the same measures were 255 nM, 278 nM, 682 nM and 73 nM.
As to `O=C1CCCCCc2c(F)ccc3cc(O)cc(c23)-c2c(cc3c(N4CC5CCC(C4)N5)nc(OC[C@@]45CCCN4C[C@H](F)C5)nc3c2F)N1` [Example 9, 12-((1R,5S)-3,8-diazabicyclo[3.2.1]octan-3-yl)-3,16-difluoro-14-(((2R,7aS)-2-fluorotetrahydro-1H-pyrazin-7a(5H)-yl)methoxy)-18-hydroxy-5,6,7,8-tetrahydro-4H-naphtho[1′,8′:4,5,6][1]azacyclododecino[2,3-g]quinazolin-9(10H)-one], the IC50 in assay [1] (Homo sapiens, AGS, 120 h) stood at 51 nM; in assay [2] (AsPC-1 cells), 118 nM; in assay [3] it was 613 nM; in assay [4], 18 nM.
